Experiment [1] deals with Sephadex induced lung edema (left lung lobe). As to the kind of experiment: Local antiinflammatory activity on airway mucosa (left lung lobe), Sephadex induced lung edema, local instillation. In kind it is in vivo, Sprague Dawley rat. The following applies: rat; for ED50 (left lung administration), left lung lobe: required glucocorticosteroid dose to reduce the edema by 50% / ED50: left lung instillation 2 h before Sephadex (5 mg/kg), left lung lobe weighed 20 h later, relative to Sephadex control group; for ED50: read-out: ED50 (left lung administration), left lung lobe: required glucocorticosteroid dose to reduce the edema by 50%. On the procedure: A. Test model for desired local antiinflammatory activity on airway mucosa (left lung lobe)
Sprague Dawley rats (250 g) were slightly anaesthetized with Ephrane and the glucocorticosteroid test preparation (suspended in saline) in a volume of 0.5 ml/kg was instilled into just the left lung lobe. Two hours later a suspension of Sephadex (5 mg/kg in a volume of 1 ml/kg) was instilled under slight anaesthesia in the trachea well above the bifurcation so that the suspension reached both the left and right lung lobes. Twenty hours later the rats were killed and the left lung lobes dissected out and weighed. Control groups got saline instead of glucocorticosteroid preparation and saline instead of Sephadex suspension to determine the weight of non-drug treated Sephadex edema and the normal lung weight.

The test system of experiment [2] is Sephadex induced lung edema (lung). Kind of experiment: Unwanted systemic effect by orally absorbed glucocorticosteroid, Sephadex induced lung edema. The settings on record: for ED50: po, read-out: ED50 (p.o. administration), lung: required glucocorticosteroid dose to reduce the edema by 50%; for ED50 / ED50 (p.o. administration), lung: required glucocorticosteroid dose to reduce the edema by 50%: rat, p.o. 2 h before Sephadex (5 mg/kg), lung lobes weighed 20 h later, relative to Sephadex control group; for dose required to inhibit lung edema (ED50) by oral administration relative to dose needed by local application to the lung (lung selectivity): ratio oral ED50 / local lung ED50, rat. In kind it is in vivo, Sprague Dawley rat. On the procedure: B. Test model for unwanted systemic effect by orally absorbed glucocorticosteroid
Sprague Dawley rats (250 g) were slightly anaesthetized with Ephrane and after that the GCS test preparation in a volume of 0,5 ml/kg was given orally. Two hours later a suspension of Sephadex (5 mg/kg in a volume of 1 ml/kg) was instilled in the trachea well above the bifurcation so that the suspension reached both the left and the right lung lobes. Twenty hours later, the rats were killed and the lung lobes were weighed. Control groups got saline instead of glucocorticosteroid preparation and saline instead of Sephadex suspension to determine the weight of non-drug treated Sephadex edema and the normal weight.

Structures are written as SMILES.

Take `CCC[C@@H]1O[C@@H]2C[C@H]3[C@@H]4C[C@H](F)C5=CC(=O)CC[C@]5(C)[C@@]4(F)[C@@H](O)C[C@]3(C)[C@]2(C(=O)CO)O1` [Example 6, (22R)-16α,17α-butylidenedioxy-6α,9α-difluoro-11β,21-dihydroxypregn-4-ene-3,20-dione]: the “local antiinflammatory activity compared with budesonide” value in experiment [1] (in words, left lung administration) is “much higher local antiinflammatory activity than budesonide”. In experiment [1], the “ED50 (left lung administration), left lung lobe: required glucocorticosteroid dose to reduce the edema by 50%” value was found to be 10 nmol/kg and the ED50 came to 0.01 µmol/kg. For the same compound, in experiment [2] (in words, oral vs local lung ED50, rat), the “lung selectivity compared to the selected prior art compound (budesonide)” value is “higher lung selectivity”. In experiment [2], the ED50 came out at 0.32 µmol/kg; the “ED50 (p.o. administration), lung: required glucocorticosteroid dose to reduce the edema by 50%” value came to 320 nmol/kg; the “dose required to inhibit lung edema (ED50) by oral administration relative to dose needed by local application to the lung (lung selectivity)” value was determined as 32 times.

For the compound `CCCC1O[C@@H]2C[C@H]3[C@@H]4CCC5=CC(=O)C=C[C@]5(C)[C@H]4[C@@H](O)C[C@]3(C)[C@]2(C(=O)CO)O1` (stereo partly drawn) [Budesonide, reference compound], in experiment [1], the “ED50 (left lung administration), left lung lobe: required glucocorticosteroid dose to reduce the edema by 50%” value is listed as 300 nmol/kg and the ED50 turned out to be 0.3 µmol/kg. Further, in experiment [2], the ED50 was determined as 4 µmol/kg; the “ED50 (p.o. administration), lung: required glucocorticosteroid dose to reduce the edema by 50%” value is on record as 4000 nmol/kg; the “dose required to inhibit lung edema (ED50) by oral administration relative to dose needed by local application to the lung (lung selectivity)” value is 13 times.

The values above are taken from patent US5939409A, “Processes for the production of anti-inflammatory steroids” (priority 1991, dated 1999).
